# Reference: the supplement of paper PMC10307832
# Assays:
# Assay in all cases: relative viability (nuclei count vs DMSO), 5 days (fraction); higher = more cells survive
# [1] = compound: COc1ncc(-c2ccc3nccc(-c4ccnnc4)c3c2)cc1NS(=O)(=O)c1ccc(F)cc1F [Omipalisib]
# How it was run: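 Acceptance criteria were a control CV below 25% and at least one doubling per plate. Lung cancer cell lines in 1536-well plates got five library-drug doses (not always all listed) √10 apart by pinning and were left 5 days with no medium change. Viability divides treated-well nuclei by vehicle-well nuclei and is the median across plates. Nuclei were counted by MetaXpress from 4× Hoechst images.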
# [2] = compound: COc1ncc(-c2ccc3nccc(-c4ccnnc4)c3c2)cc1NS(=O)(=O)c1ccc(F)cc1F [Omipalisib] + CC(C)C[C@H](NC(=O)[C@H](Cc1ccccc1)NC(=O)c1cnccn1)B(O)O [Bortezomib] (partner 0.002 µM)
# How it was run: (§1)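 The day after seeding in 1536-well plates, lung cancer cell lines were treated by pin tool with a single drug, or with a fixed anchor-drug dose together with five library-drug doses (not always all listed) in √10 steps. After 5 days, a combined fix-and-stain solution (final 0.05% Triton X-100, 1% formaldehyde, 1 ug/ml Hoechst) was added. Nuclei counted on 4× images gave relative viability as treated counts over vehicle counts, reported as the median of duplicate plates.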
# [3] = compound: COc1ncc(-c2ccc3nccc(-c4ccnnc4)c3c2)cc1NS(=O)(=O)c1ccc(F)cc1F [Omipalisib] + CC1(C)CCC(c2ccc(Cl)cc2)=C(CN2CCN(c3ccc(C(=O)NS(=O)(=O)c4ccc(N[C@H](CCN5CCOCC5)CSc5ccccc5)c(S(=O)(=O)C(F)(F)F)c4)cc3)CC2)C1 [Navitoclax] (partner 0.5 µM)
# How it was run: as §1
# [4] = compound: COc1ncc(-c2ccc3nccc(-c4ccnnc4)c3c2)cc1NS(=O)(=O)c1ccc(F)cc1F [Omipalisib] + COc1cc2c(Oc3ccc(NC(=O)C4(C(=O)Nc5ccc(F)cc5)CC4)cc3F)ccnc2cc1OCCCN1CCOCC1 [Foretinib] (partner 0.25 µM)
# How it was run: as §1
# [5] = compound: COc1ncc(-c2ccc3nccc(-c4ccnnc4)c3c2)cc1NS(=O)(=O)c1ccc(F)cc1F [Omipalisib] + CS(=O)(=O)CCNCc1ccc(-c2ccc3ncnc(Nc4ccc(OCc5cccc(F)c5)c(Cl)c4)c3c2)o1 [Lapatinib] (partner 2 µM)
# How it was run: as §1
# [6] = compound: COc1ncc(-c2ccc3nccc(-c4ccnnc4)c3c2)cc1NS(=O)(=O)c1ccc(F)cc1F [Omipalisib] + CS(=O)(=O)N1CCN(Cc2cc3nc(-c4cccc5[nH]ncc45)nc(N4CCOCC4)c3s2)CC1 [Pictilisib] (partner 1 µM)
# How it was run: as §1
# [7] = compound: COc1ncc(-c2ccc3nccc(-c4ccnnc4)c3c2)cc1NS(=O)(=O)c1ccc(F)cc1F [Omipalisib] + C[C@@H](Oc1cc(-c2cnn(C3CCNCC3)c2)cnc1N)c1c(Cl)ccc(F)c1Cl [Crizotinib] (partner 1 µM)
# How it was run: as §1
# [8] = compound: COc1ncc(-c2ccc3nccc(-c4ccnnc4)c3c2)cc1NS(=O)(=O)c1ccc(F)cc1F [Omipalisib] + C[C@]1(O)C[C@@H](c2nc(-c3ccc4ccc(-c5ccccc5)nc4c3)c3c(N)nccn32)C1 [Linsitinib] (partner 1 µM)
# How it was run: as §1
# [9] = compound: COc1ncc(-c2ccc3nccc(-c4ccnnc4)c3c2)cc1NS(=O)(=O)c1ccc(F)cc1F [Omipalisib] + Cc1nc(NC(=O)N2CCC[C@H]2C(N)=O)sc1-c1ccnc(C(C)(C)C(F)(F)F)c1 [Alpelisib] (partner 2 µM)
# How it was run: as §1
# [10] = compound: COc1ncc(-c2ccc3nccc(-c4ccnnc4)c3c2)cc1NS(=O)(=O)c1ccc(F)cc1F [Omipalisib] + NC(=O)Nc1cc(-c2cccc(F)c2)sc1C(=O)N[C@H]1CCCNC1 [AZD7762] (partner 0.2 µM)
# How it was run: as §1
# [11] = compound: COc1ncc(-c2ccc3nccc(-c4ccnnc4)c3c2)cc1NS(=O)(=O)c1ccc(F)cc1F [Omipalisib] + O=C(c1cc(Cc2n[nH]c(=O)c3ccccc23)ccc1F)N1CCN(C(=O)C2CC2)CC1 [Olaparib] (partner 8 µM)
# How it was run: as §1
# [12] = compound: COc1ncc(-c2ccc3nccc(-c4ccnnc4)c3c2)cc1NS(=O)(=O)c1ccc(F)cc1F [Omipalisib] + CC(=O)Nc1cccc(-n2c(=O)n(C3CC3)c(=O)c3c(Nc4ccc(I)cc4F)n(C)c(=O)c(C)c32)c1 [Trametinib] (partner 0.02 µM)
# How it was run: as §1
# [13] = compound: COc1ncc(-c2ccc3nccc(-c4ccnnc4)c3c2)cc1NS(=O)(=O)c1ccc(F)cc1F [Omipalisib] + CC(=O)c1c(C)c2cnc(Nc3ccc(N4CCNCC4)cn3)nc2n(C2CCCC2)c1=O [Palbociclib] (partner 0.5 µM)
# How it was run: as §1
# [14] = compound: COc1ncc(-c2ccc3nccc(-c4ccnnc4)c3c2)cc1NS(=O)(=O)c1ccc(F)cc1F [Omipalisib] + CCNC(=O)c1noc(-c2cc(C(C)C)c(O)cc2O)c1-c1ccc(CN2CCOCC2)cc1 [Luminespib] (partner 0.01 µM)
# How it was run: as §1
# [15] = compound: COc1ncc(-c2ccc3nccc(-c4ccnnc4)c3c2)cc1NS(=O)(=O)c1ccc(F)cc1F [Omipalisib] + COc1cccc2cc(-c3nc([C@H]4CC[C@H](C(=O)O)CC4)n4ncnc(N)c34)[nH]c12 [OSI-027] (partner 0.5 µM)
# How it was run: as §1
# [16] = compound: COc1ncc(-c2ccc3nccc(-c4ccnnc4)c3c2)cc1NS(=O)(=O)c1ccc(F)cc1F [Omipalisib] + Cc1cc(Nc2cc(N3CCN(C)CC3)nc(Sc3ccc(NC(=O)C4CC4)cc3)n2)n[nH]1 [Tozasertib] (partner 0.1 µM)
# How it was run: as §1
# [17] = compound: COc1ncc(-c2ccc3nccc(-c4ccnnc4)c3c2)cc1NS(=O)(=O)c1ccc(F)cc1F [Omipalisib] + Cc1nc(Nc2ncc(C(=O)Nc3c(C)cccc3Cl)s2)cc(N2CCN(CCO)CC2)n1 [Dasatinib] (partner 0.075 µM)
# How it was run: as §1
# [18] = compound: COc1ncc(-c2ccc3nccc(-c4ccnnc4)c3c2)cc1NS(=O)(=O)c1ccc(F)cc1F [Omipalisib] + N=C(N)NC(=N)NCCc1ccccc1 [Phenformin] (partner 250 µM)
# How it was run: as §1
# [19] = compound: COc1ncc(-c2ccc3nccc(-c4ccnnc4)c3c2)cc1NS(=O)(=O)c1ccc(F)cc1F [Omipalisib] + Nc1nc2[nH]cc(CCc3ccc(C(=O)N[C@@H](CCC(=O)O)C(=O)O)cc3)c2c(=O)[nH]1 [Pemetrexed] (partner 0.2 µM)
# How it was run: as §1
# [20] = compound: COc1ncc(-c2ccc3nccc(-c4ccnnc4)c3c2)cc1NS(=O)(=O)c1ccc(F)cc1F [Omipalisib] + Nc1ncn([C@H]2C[C@H](O)[C@@H](CO)O2)c(=O)n1 [Decitabine] (partner 2 µM)
# How it was run: as §1
# [21] = compound: COc1ncc(-c2ccc3nccc(-c4ccnnc4)c3c2)cc1NS(=O)(=O)c1ccc(F)cc1F [Omipalisib] + O=C(CCCCCCC(=O)Nc1ccccc1)NO [Vorinostat] (partner 1 µM)
# How it was run: as §1
cell line,measurement,setting,value
NCI-H1703,relative viability,[1]; 0.0003 µM,0.777
same,relative viability,[1]; 0.003 µM,0.572
same,relative viability,[1]; 0.03 µM,0.234
same,relative viability,[2]; first compound 0.0003 µM,0.323
same,relative viability,[2]; first compound 0.003 µM,0.268
same,relative viability,[2]; first compound 0.03 µM,0.153
same,relative viability,[3]; first compound 0.0003 µM,0.713
same,relative viability,[3]; first compound 0.003 µM,0.651
same,relative viability,[3]; first compound 0.03 µM,0.24
same,relative viability,[4]; first compound 0.0003 µM,0.314
same,relative viability,[4]; first compound 0.003 µM,0.37
same,relative viability,[4]; first compound 0.03 µM,0.301
same,relative viability,[5]; first compound 0.0003 µM,0.879
same,relative viability,[5]; first compound 0.003 µM,0.715
same,relative viability,[5]; first compound 0.03 µM,0.293
same,relative viability,[6]; first compound 0.0003 µM,0.218
same,relative viability,[6]; first compound 0.003 µM,0.238
same,relative viability,[6]; first compound 0.03 µM,0.202
same,relative viability,[7]; first compound 0.0003 µM,0.707
same,relative viability,[7]; first compound 0.003 µM,0.418
same,relative viability,[7]; first compound 0.03 µM,0.128
same,relative viability,[8]; first compound 0.0003 µM,0.596
same,relative viability,[8]; first compound 0.003 µM,0.298
same,relative viability,[8]; first compound 0.03 µM,0.171
same,relative viability,[9]; first compound 0.0003 µM,0.428
same,relative viability,[9]; first compound 0.003 µM,0.273
same,relative viability,[9]; first compound 0.03 µM,0.179
same,relative viability,[10]; first compound 0.0003 µM,0.152
same,relative viability,[10]; first compound 0.003 µM,0.115
same,relative viability,[10]; first compound 0.03 µM,0.111
same,relative viability,[11]; first compound 0.0003 µM,0.28
same,relative viability,[11]; first compound 0.003 µM,0.279
same,relative viability,[11]; first compound 0.03 µM,0.214
NCI-H2342,relative viability,[1]; 0.0003 µM,0.741
same,relative viability,[1]; 0.003 µM,0.63
same,relative viability,[1]; 0.03 µM,0.534
same,relative viability,[12]; first compound 0.0003 µM,0.732
same,relative viability,[12]; first compound 0.003 µM,0.583
same,relative viability,[12]; first compound 0.03 µM,0.449
same,relative viability,[13]; first compound 0.0003 µM,0.459
same,relative viability,[13]; first compound 0.003 µM,0.442
same,relative viability,[13]; first compound 0.03 µM,0.406
same,relative viability,[14]; first compound 0.0003 µM,0.622
same,relative viability,[14]; first compound 0.003 µM,0.45
same,relative viability,[14]; first compound 0.03 µM,0.446
same,relative viability,[4]; first compound 0.0003 µM,0.816
same,relative viability,[4]; first compound 0.003 µM,0.688
same,relative viability,[4]; first compound 0.03 µM,0.453
same,relative viability,[15]; first compound 0.0003 µM,0.569
same,relative viability,[15]; first compound 0.003 µM,0.516
same,relative viability,[15]; first compound 0.03 µM,0.467
same,relative viability,[16]; first compound 0.0003 µM,0.425
same,relative viability,[16]; first compound 0.003 µM,0.442
same,relative viability,[16]; first compound 0.03 µM,0.354
same,relative viability,[17]; first compound 0.0003 µM,0.298
same,relative viability,[17]; first compound 0.003 µM,0.294
same,relative viability,[17]; first compound 0.03 µM,0.243
same,relative viability,[18]; first compound 0.0003 µM,0.56
same,relative viability,[18]; first compound 0.003 µM,0.482
same,relative viability,[18]; first compound 0.03 µM,0.424
same,relative viability,[10]; first compound 0.0003 µM,0.47
same,relative viability,[10]; first compound 0.003 µM,0.434
same,relative viability,[10]; first compound 0.03 µM,0.383
same,relative viability,[19]; first compound 0.0003 µM,0.69
same,relative viability,[19]; first compound 0.003 µM,0.568
same,relative viability,[19]; first compound 0.03 µM,0.451
same,relative viability,[20]; first compound 0.0003 µM,0.589
same,relative viability,[20]; first compound 0.003 µM,0.479
same,relative viability,[20]; first compound 0.03 µM,0.408
same,relative viability,[21]; first compound 0.0003 µM,0.678
same,relative viability,[21]; first compound 0.003 µM,0.536
same,relative viability,[21]; first compound 0.03 µM,0.499
same,relative viability,[11]; first compound 0.0003 µM,0.411
same,relative viability,[11]; first compound 0.003 µM,0.376
same,relative viability,[11]; first compound 0.03 µM,0.239
SW 900,relative viability,[1]; 0.0003 µM,0.886
same,relative viability,[1]; 0.003 µM,0.768
same,relative viability,[1]; 0.03 µM,0.591
same,relative viability,[12]; first compound 0.0003 µM,0.625
same,relative viability,[12]; first compound 0.003 µM,0.915
same,relative viability,[12]; first compound 0.03 µM,0.396
same,relative viability,[13]; first compound 0.0003 µM,0.522
same,relative viability,[13]; first compound 0.003 µM,0.444
same,relative viability,[13]; first compound 0.03 µM,0.278
same,relative viability,[14]; first compound 0.0003 µM,0.189
same,relative viability,[14]; first compound 0.003 µM,0.171
same,relative viability,[14]; first compound 0.03 µM,0.166
same,relative viability,[4]; first compound 0.0003 µM,0.888
same,relative viability,[4]; first compound 0.003 µM,0.691
same,relative viability,[4]; first compound 0.03 µM,0.622
same,relative viability,[15]; first compound 0.0003 µM,0.573
same,relative viability,[15]; first compound 0.003 µM,0.495
same,relative viability,[15]; first compound 0.03 µM,0.306
same,relative viability,[16]; first compound 0.0003 µM,0.556
same,relative viability,[16]; first compound 0.003 µM,0.562
same,relative viability,[16]; first compound 0.03 µM,0.423
same,relative viability,[17]; first compound 0.0003 µM,0.568
same,relative viability,[17]; first compound 0.003 µM,0.293
same,relative viability,[17]; first compound 0.03 µM,0.211
same,relative viability,[18]; first compound 0.0003 µM,0.513
same,relative viability,[18]; first compound 0.003 µM,0.321
same,relative viability,[18]; first compound 0.03 µM,0.424
same,relative viability,[10]; first compound 0.0003 µM,0.748
same,relative viability,[10]; first compound 0.003 µM,0.381
same,relative viability,[10]; first compound 0.03 µM,0.342
same,relative viability,[19]; first compound 0.0003 µM,0.508
same,relative viability,[19]; first compound 0.003 µM,0.456
same,relative viability,[19]; first compound 0.03 µM,0.487
same,relative viability,[20]; first compound 0.0003 µM,0.386
same,relative viability,[20]; first compound 0.003 µM,0.344
same,relative viability,[20]; first compound 0.03 µM,0.392
same,relative viability,[21]; first compound 0.0003 µM,0.523
same,relative viability,[21]; first compound 0.003 µM,0.484
same,relative viability,[21]; first compound 0.03 µM,0.316
same,relative viability,[11]; first compound 0.0003 µM,0.862
same,relative viability,[11]; first compound 0.003 µM,0.544
same,relative viability,[11]; first compound 0.03 µM,0.417
